Tested on: BaF3-NRASD12
Experiment: Oncogenic RAS dependent cell proliferation (CellTiter Glo)
Type: cell-based, murine
Conditions: Mus musculus, BaF3-NRASD12 cells, 48 hours, read-out: NRas-BaF3 IC50
How it was run: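 BaF/3 cells transformed with NRASD12 or KRASD12, plus parental BaF/3, seeded at 5000 cells/well. Viability read by CellTiter-Glo luminescence, reagent diluted 1:4 in PBS, with vehicle and cell-free background controls.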

## Cc1ccc(Nc2ncc3c(n2)N(C)CN(c2cc(NC(=O)c4cccc(C(F)(F)F)c4)ccc2C)C3)cn1 [IA-9, N-(4-methyl-3-(1-methyl-7-((6-methylpyridin-3-yl)amino)-1,4-dihydropyrimido[4,5-d]pyrimidin-3(2H)-yl)phenyl)-3-(trifluoromethyl)benzamide]
  IC50: 380 nM

Source: patent US10364247B2, “Preparation and use of novel protein kinase inhibitors” (Ruijin Hospital Affiliated to Shanghai Jiao Tong University …, priority 2015, dated 2019)
